Patent US7041808B2 (priority 2001, dated 2006)
Bridges are numbered along the chain shown (N, C = ends). Where no end group is shown, it is not given here.

Columns and labels:
Assay type in all cases: cell-based
[1] = system: Rhizoctonia solani; assay: Anti-filamentous fungal activity, inhibitory circle on agar plate; conditions: 1 μl sample spotted, culture 24 hours at 25° C.
Procedure: Rhizoctonia solani microorganisms were cultured in a potato dextrose (PD) medium (Difco) at 25° C. for 5 days, and then their hyphae were cut thin with a homogenizer. From the resulting suspension of thin hyphae, a clump of hyphae was removed, and the hyphae were recovered by centrifugation and adjusted to a density of 10^5 hyphae/ml with PD medium. A PDA medium was added in a solution form to 250 μl hypha suspension to form 5 ml suspension which was then spread on a Petri dish (diameter, 8.4 cm). After the medium was solidified, 1 μl sample for activity evaluation was spotted thereon followed by culture for 24 hours at 25° C., and the size of an inhibitory circle formed around the spot was measured.
The above-described method of evaluating anti-Rhizoctonia solani activity was used to evaluate the activity of the 4 synthetic proteins.

[2] = system: Pyricularia oryzae; conditions: 50 μg protein spotted
[3] = system: Rhizoctonia solani Kuhn
[4] = system: Septoria tritici
[5] = system: Phytophthora infestance; conditions: V8 juice medium, 20° C., 50 μg protein spotted
[6] = system: Staphylococcus aureus
[7] = system: Escherichia coli

Row | Substance | Inhibitory circle [1] | Inhibitory circle [2] | Inhibitory circle [3] | Inhibitory circle [4] | Inhibitory circle [5] | Inhibitory circle [6] | Inhibitory circle [7]
1 | SP4080: protein consisting of 36 amino acid residues, SEQ ID NO:7, from Coconut rhinoceros beetle; chemically synthesized with disulfide linkages (ELPKLPDDKVLIRSRSNCPKGKVWNGFDCKSPFAFS; disulfide 18-29 (inferred)) | ⊚ (Inhibitory circle of 4 mm or more) | ◯ (Inhibitory circle of less than 4 mm) | ⊚ (key: ⊚: Inhibitory circle of 4 mm or more; ◯: Inhibitory circle of less than 4 mm; X: No activity) | ◯ (key: ⊚: Inhibitory circle of 4 mm or more; ◯: Inhibitory circle of less than 4 mm; X: No activity) | ◯ (Inhibitory circle of less than 4 mm) | ⊚ (key: ⊚: Inhibitory circle of 4 mm or more; ◯: Inhibitory circle of less than 4 mm; X: No activity) | ⊚ (key: ⊚: Inhibitory circle of 4 mm or more; ◯: Inhibitory circle of less than 4 mm; X: No activity)
2 | SP4266: protein consisting of 38 amino acid residues in total represented by SEQ ID NO:8; chemically synthesized (DAELPKLPDDKVLIRSRSNCPKGKVWNGFDCKSPFAFS; Oryctes rhinoceros) | ⊚ (Inhibitory circle of 4 mm or more) |  |  |  |  |  | 
3 | SP4337: protein consisting of 38 amino acid residues in total represented by SEQ ID NO:9; chemically synthesized (ELPKLPDDKVLIRSRSNCPKGKVWNGFDCKSPFAFSKK; Oryctes rhinoceros) | ⊚ (Inhibitory circle of 4 mm or more) |  |  |  |  |  | 
4 | SP4523: protein consisting of 40 amino acid residues in total represented by SEQ ID NO:10; chemically synthesized (DAELPKLPDDKVLIRSRSNCPKGKVWNGFDCKSPFAFSKK; Oryctes rhinoceros) | ⊚ (Inhibitory circle of 4 mm or more) |  |  |  |  |  | 
